Active and inactive are the calls of the source.
Key:
[1] = biological target: DNA dC->dU-editing enzyme APOBEC-3A (Homo sapiens, UniProt P31941); test: A3A deaminase inhibition for selectivity – biochemical, dose response (AID 504722); assay type: functional
[2] = biological target: DNA dC->dU-editing enzyme APOBEC-3G (Homo sapiens, UniProt Q9HC16); test: Dose Response confirmation of small molecule APOBEC3G DNA Deaminase Inhibitors via a fluorescence-based single-stranded DNA deaminase assay. [Related pubchem assays (depositor defined):AID493012, AID493028]; assay type: functional
DNA dC->dU-editing enzyme APOBEC-3G, sequence (Q9HC16 whole entry): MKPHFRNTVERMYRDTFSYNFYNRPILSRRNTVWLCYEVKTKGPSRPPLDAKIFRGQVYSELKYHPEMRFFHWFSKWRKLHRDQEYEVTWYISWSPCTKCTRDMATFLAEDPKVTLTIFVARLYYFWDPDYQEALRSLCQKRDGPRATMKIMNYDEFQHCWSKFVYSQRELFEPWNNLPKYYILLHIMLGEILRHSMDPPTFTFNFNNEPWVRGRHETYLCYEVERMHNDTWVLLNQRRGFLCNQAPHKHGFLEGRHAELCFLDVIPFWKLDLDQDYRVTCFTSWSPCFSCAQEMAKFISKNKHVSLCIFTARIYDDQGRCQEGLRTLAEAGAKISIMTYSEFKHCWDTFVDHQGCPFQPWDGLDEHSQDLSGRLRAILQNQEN

[3] = biological target: T1, Rac GTPase-activating protein 1 (Homo sapiens, UniProt Q9H0H5); test: blockers of MgcRacGAP-driven Rac1 GTP hydrolysis – biochemical, ADP Hunter fluorescence, primary and confirmatory, confirmation (AID 624330); assay type: functional
T1 sequence (Q9H0H5 whole entry): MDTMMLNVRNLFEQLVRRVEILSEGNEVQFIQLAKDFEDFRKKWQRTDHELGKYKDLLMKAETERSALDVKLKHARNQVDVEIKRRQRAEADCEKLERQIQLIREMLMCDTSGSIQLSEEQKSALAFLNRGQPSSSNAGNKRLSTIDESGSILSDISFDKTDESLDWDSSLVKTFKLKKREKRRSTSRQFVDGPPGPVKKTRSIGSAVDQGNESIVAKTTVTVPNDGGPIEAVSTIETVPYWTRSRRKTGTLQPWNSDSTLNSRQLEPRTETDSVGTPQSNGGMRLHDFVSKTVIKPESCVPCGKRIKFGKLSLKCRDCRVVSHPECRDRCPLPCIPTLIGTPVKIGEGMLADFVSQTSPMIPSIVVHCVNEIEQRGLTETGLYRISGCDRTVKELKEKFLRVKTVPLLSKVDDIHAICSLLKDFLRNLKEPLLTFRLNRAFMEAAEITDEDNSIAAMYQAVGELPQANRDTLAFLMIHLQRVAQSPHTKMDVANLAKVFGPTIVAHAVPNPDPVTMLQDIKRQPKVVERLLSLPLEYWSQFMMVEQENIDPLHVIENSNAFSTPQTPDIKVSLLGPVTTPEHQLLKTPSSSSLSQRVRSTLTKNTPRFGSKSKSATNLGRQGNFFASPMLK

[4] = biological target: T2, Short transient receptor potential channel 4 (Mus musculus, UniProt Q9QUQ5); test: calcium entry via TRPC4 opening agents – cell-based, HEK293 TRPC4/mu-opioid, Fluo-4 calcium, dose response (AID 434937); assay type: functional
T2 sequence (Q9QUQ5 whole entry): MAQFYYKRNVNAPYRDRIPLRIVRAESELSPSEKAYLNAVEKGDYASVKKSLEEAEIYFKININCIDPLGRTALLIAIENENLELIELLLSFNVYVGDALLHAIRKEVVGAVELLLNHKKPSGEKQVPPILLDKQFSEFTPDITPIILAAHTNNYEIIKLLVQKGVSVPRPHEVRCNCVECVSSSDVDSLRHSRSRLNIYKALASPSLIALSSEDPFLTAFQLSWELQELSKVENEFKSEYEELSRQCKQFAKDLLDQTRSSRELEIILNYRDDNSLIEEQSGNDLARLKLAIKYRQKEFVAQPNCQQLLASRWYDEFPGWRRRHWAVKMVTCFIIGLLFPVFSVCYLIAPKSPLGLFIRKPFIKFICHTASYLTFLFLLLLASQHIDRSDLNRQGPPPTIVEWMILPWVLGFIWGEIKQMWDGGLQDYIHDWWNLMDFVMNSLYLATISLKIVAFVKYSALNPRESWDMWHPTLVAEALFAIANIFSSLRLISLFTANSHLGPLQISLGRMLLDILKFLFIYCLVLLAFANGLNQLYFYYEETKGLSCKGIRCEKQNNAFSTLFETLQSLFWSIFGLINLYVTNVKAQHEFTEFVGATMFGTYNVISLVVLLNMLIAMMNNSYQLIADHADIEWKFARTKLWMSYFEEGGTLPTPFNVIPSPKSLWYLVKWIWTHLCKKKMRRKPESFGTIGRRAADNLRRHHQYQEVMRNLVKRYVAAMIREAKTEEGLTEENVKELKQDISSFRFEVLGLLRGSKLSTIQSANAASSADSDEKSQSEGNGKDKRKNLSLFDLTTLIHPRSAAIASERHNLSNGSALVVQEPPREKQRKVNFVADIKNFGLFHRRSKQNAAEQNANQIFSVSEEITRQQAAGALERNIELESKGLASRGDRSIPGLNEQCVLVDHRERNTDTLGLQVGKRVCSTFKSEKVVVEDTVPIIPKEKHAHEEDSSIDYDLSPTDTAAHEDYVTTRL

[5] = biological target: FAD-linked sulfhydryl oxidase ALR (Homo sapiens, UniProt P55789); test: ALR-catalysed DTT oxidation blockers – biochemical, H2O2 detection, luminescence, cherry-pick, dose response (AID 493248)
FAD-linked sulfhydryl oxidase ALR, sequence (P55789 whole entry): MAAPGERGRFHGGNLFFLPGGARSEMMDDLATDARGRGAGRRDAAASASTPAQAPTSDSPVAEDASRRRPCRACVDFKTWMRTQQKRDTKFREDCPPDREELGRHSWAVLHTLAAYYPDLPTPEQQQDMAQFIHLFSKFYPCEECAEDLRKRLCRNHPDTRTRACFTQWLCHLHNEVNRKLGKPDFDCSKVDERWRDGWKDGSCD

[6] = biological target: G-protein coupled receptor 55 (Homo sapiens, UniProt Q9Y2T6); test: inhibition of LPI-stimulated GPR55 beta-arrestin translocation – imaging, U2OS, beta-arrestin-GFP, LPI agonist, primary screen (AID 2013); assay type: functional;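 also: antagonist potency measured as reduced agonist-driven arrestin aggregation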
G-protein coupled receptor 55, sequence (Q9Y2T6 whole entry): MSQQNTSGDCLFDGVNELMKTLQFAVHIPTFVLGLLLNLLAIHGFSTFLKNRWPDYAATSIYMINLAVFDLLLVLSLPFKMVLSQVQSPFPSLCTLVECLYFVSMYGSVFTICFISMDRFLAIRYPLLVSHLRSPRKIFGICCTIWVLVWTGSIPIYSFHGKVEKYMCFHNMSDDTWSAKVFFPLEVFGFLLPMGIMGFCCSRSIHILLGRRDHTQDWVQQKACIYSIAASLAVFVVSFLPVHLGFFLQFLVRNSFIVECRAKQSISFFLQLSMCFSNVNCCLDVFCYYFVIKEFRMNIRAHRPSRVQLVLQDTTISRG

Leucine aminopeptidase = biological target: T3, Leucine aminopeptidase (Plasmodium falciparum 3D7, UniProt Q8IL11); test: P. falciparum M17LAP inhibitors, primary screen, biochemical, fluorogenic H-Leu-NHMec substrate, 1536-well (AID 1619); assay type: functional
T3 sequence (Q8IL11 whole entry): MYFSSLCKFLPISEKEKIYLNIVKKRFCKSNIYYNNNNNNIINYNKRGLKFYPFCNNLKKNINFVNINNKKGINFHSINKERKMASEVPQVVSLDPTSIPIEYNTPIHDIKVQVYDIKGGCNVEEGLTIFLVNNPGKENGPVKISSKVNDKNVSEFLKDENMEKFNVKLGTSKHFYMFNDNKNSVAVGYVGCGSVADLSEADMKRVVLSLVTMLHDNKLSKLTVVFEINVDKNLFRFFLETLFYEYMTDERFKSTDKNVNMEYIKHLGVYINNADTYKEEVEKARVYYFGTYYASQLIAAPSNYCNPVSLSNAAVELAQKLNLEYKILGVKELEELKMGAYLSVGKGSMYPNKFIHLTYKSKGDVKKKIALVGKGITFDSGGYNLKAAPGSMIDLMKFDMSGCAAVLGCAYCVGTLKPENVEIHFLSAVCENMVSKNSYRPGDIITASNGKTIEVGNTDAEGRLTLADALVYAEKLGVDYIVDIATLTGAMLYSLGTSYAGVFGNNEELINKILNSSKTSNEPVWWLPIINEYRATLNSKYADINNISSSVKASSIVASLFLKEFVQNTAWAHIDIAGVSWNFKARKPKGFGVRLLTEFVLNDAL

HEK293 [7] = test: inhibition of NOD1-driven NF-kB reporter – cell-based, luminescence, uHTS, primary screen (AID 1578); assay type: functional; conditions: Homo sapiens
HEK293 [8] = test: cells; assay type: functional, cell-based; conditions: Homo sapiens
HEK293 [9] = test: cells; assay type: functional, cell-based; conditions: Homo sapiens; remark: listed apart in the source
HEK293 [10] = test: NOD2 signaling inhibitors in MDP-stimulated cells, cell-based, uHTS, luminescence (AID 2001); assay type: functional; conditions: Homo sapiens
[11] = biological target: Glucose-6-phosphate 1-dehydrogenase (Homo sapiens, UniProt P11413); test: inhibition of Homo sapiens G6PD, dose series – biochemical, fluorescence, selectivity assay for P. falciparum G6PD inhibitor project, dose response (AID 504792); assay type: functional
Glucose-6-phosphate 1-dehydrogenase, sequence (P11413 whole entry): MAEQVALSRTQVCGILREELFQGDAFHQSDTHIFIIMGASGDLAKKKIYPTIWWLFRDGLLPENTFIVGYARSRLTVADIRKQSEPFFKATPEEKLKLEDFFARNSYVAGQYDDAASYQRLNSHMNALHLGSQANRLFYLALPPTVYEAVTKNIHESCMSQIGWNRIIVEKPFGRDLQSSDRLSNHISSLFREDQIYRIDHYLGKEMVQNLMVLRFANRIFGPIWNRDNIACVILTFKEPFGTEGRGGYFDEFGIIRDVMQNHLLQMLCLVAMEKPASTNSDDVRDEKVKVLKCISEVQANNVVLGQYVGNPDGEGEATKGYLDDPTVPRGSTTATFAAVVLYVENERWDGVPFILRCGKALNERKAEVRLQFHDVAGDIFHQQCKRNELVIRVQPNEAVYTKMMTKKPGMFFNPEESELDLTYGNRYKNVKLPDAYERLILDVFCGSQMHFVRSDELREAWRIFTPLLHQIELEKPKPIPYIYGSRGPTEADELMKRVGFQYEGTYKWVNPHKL

[12] = biological target: T4, Replicative DNA helicase DnaB (Mycobacterium tuberculosis, UniProt P9WMR3); test: DnaB intein splicing inhibitors, dose response, biochemical, cell-free fluorescence (AID 449749); assay type: functional
T4 sequence (P9WMR3 whole entry): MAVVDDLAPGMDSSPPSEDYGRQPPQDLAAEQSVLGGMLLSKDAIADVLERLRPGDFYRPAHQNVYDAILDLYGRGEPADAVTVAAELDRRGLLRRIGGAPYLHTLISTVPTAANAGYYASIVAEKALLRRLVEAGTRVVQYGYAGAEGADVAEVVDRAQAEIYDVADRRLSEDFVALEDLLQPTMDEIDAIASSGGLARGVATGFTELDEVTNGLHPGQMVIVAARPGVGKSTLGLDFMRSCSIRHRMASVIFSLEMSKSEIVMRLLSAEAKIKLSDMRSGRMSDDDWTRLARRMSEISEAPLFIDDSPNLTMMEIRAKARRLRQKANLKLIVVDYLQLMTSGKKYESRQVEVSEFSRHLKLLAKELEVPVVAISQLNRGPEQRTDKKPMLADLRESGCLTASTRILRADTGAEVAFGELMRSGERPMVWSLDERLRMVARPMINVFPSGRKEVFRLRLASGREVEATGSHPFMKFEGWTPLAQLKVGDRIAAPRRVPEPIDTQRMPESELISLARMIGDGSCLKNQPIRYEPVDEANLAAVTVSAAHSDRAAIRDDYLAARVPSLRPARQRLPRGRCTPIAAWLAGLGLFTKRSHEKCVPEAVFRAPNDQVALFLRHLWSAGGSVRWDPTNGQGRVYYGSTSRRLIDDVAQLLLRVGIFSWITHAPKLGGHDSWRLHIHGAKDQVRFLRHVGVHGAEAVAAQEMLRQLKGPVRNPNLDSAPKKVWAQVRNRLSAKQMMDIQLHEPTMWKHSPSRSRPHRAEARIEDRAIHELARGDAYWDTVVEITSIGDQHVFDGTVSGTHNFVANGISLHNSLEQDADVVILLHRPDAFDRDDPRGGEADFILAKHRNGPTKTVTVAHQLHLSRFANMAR

Protein RecA = biological target: T5, Protein RecA (Mycobacterium tuberculosis, UniProt P9WHJ3); test: Fluorescence Cell-Free Homogeneous Dose Retest to Identify Inhibitors of RecA-Intein Splicing Activity. [Related pubchem assays (depositor defined):AID2097, AID2223, AID489010, AID492950]; assay type: functional
T5 sequence (P9WHJ3 whole entry): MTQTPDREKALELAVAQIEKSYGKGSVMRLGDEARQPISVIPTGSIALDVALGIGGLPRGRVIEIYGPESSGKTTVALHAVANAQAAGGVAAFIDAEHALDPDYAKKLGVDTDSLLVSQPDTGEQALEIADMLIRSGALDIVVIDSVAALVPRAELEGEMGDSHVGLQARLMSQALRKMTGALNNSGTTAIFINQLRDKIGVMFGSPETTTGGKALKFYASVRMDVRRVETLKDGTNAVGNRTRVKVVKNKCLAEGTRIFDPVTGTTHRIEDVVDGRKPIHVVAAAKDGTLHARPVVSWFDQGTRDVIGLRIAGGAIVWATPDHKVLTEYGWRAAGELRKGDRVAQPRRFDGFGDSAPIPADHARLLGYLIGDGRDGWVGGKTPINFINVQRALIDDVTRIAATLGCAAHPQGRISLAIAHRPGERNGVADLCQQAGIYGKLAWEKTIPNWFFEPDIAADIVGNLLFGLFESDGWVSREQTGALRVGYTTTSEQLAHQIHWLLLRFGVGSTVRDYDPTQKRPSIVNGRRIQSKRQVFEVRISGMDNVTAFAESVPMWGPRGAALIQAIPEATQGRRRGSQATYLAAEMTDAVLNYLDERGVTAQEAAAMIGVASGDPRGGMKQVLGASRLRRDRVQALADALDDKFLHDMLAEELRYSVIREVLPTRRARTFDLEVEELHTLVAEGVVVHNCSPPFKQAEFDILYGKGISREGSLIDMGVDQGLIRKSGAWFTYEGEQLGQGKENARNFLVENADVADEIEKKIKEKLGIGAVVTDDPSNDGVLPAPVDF

DNA dC->dU-editing enzyme APOBEC-3A, sequence (P31941 whole entry): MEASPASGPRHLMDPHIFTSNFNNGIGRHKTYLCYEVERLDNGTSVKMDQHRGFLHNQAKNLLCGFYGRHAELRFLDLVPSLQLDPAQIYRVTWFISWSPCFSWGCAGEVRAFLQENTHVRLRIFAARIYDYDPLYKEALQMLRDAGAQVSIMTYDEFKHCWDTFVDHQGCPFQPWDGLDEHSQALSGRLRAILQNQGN

SMILES: Cn1c(=O)c2ccccc2n2c(S)nnc12
- IC50 [1]: > 100 µM (inactive)
- IC50 [2]: 3.8 µM (active)
- IC50 [3]: 19.9 µM (active)

SMILES: NCCCNC(=O)c1cc2ccccc2[nH]1
- EC50 [4]: 7.5 µM (active)

SMILES: CC(C)(C)c1cc(Cl)ccc1OCCn1ccnc1
- EC50 [4]: 5.96 µM (active)

SMILES: Sc1nnc(C2CCCCC2)n1/N=C/c1ccccn1
- IC50 [1]: > 100 µM (inactive)
- IC50 [2]: 2.23 µM (active)
- AC50 [5]: 1.04 µM (active)

SMILES: COC(=O)c1ccccc1NC(=S)NC(NC(=O)c1ccco1)C(Cl)(Cl)Cl (stereo unspecified)
- IC50 [6]: 8.08 µM (active)

SMILES: CCc1nnc(NS(=O)(=O)c2ccc(NC(=O)/C=C/c3ccc(OC)cc3OC)cc2)s1
- IC50 (Leucine aminopeptidase): 7.96 µM (active)
- IC50 [6]: 1.44 µM (active)

SMILES: Oc1nc(CCl)nc2cc(-c3ccc(F)cc3)sc12
- EC50 (HEK293 [7]): 13.1 µM (active)
- IC50 (HEK293 [8]): 12.6 µM (active)
- IC50 (HEK293 [9]): > 20 µM (inactive)
- IC50 (HEK293 [10]): 15.2 µM (inactive)

SMILES: O=S(=O)(Nc1c(O)ccc2ccccc12)c1ccccc1
- IC50 [11]: 29.9 µM (inactive)
- AC50 [12]: 5.09 µM (active)
- EC50 (Protein RecA): 1.51 µM (active)

SMILES: COc1ccc(/C=N/n2c(S)nnc2-c2[nH]nc3c2CCC3)c(OC)c1OC
- IC50 [1]: > 100 µM (inactive)
- IC50 [2]: 4.64 µM (active)
- IC50 [3]: 69.9 µM (active)
